Measured values as given in patent US20240059698A1 (Accutar Biotechnology Inc., priority 2022, published 2024).

Assays:
[1] = tested on: HCC827-SVD cells (human EGFR exon 20 insertion mutant D770_N771insSVD); experiment: Cell growth inhibition (CellTiter-Glo), HCC827-SVD; assay type: cell-based; conditions: 72 h, 3 days
Description: (§1) Generation of HCC827-SVD, HCC827-ASV, and HCC827-YVMA cell lines. The HCC827-SVD cell line was generated by first transducing HCC827 cells (ATCC) with lentiviral particles expressing codon-optimized human EGFR exon 20 insertion mutant D770_N771insSVD, and then selecting under 5 µg/mL puromycin treatment for a week. The resulting cells were further transduced with lentiviral particles carrying EGFR sgRNA and CAS9 to knockout the endogenous alleles of EGER and then selected under 500 µg/mL hygromycin B treatment for two weeks. The limiting dilution approach was used to subsequently generate the single clone of the HCC827-SVD stable cell line. Endogenous EGFR knockout was confirmed by Sanger sequencing of cell genomic DNA, and expression of exogenous mutant EGFR was verified by Western blot analysis.
(§2) 2. Cell Growth Inhibition for HCC827, HCC827-SVD, HCC827-ASV, HCC827-YVMA, and A431.
(§3) HCC827(ATCC), HCC827-SVD, HCC827-ASV, and HCC827-YVMA cells were seeded in 96-well plates at 5000 cells/well in 90 μL of RPMI growth medium containing 10% FBS and 1% Penicillin Streptomycin. A431 (ATCC) cells were seeded in 96-well plates at 5000 cells/well in 90 μL of DMEM growth medium containing 10% FBS and 1% Penicillin Streptomycin. Cells were incubated at 37° C. overnight and then administered with 10 μL 10× test compounds prepared in the growth medium at various concentrations. After administration of the compounds, cells were incubated at 37° C. for 3 days. Before the CellTiter-Glo assay, the plates were equilibrated at room temperature for approximately 30 minutes. 100 ul of CellTiter-Glo reagent (Promega) was added to each well. The plates were then incubated at room temperature for 10 minutes and luminescence was recorded by the EnSight® multimode plate reader (PerkinElmer). Table 7 listed selected compounds in cellular growth assay.

[2] = tested on: HCC827-YVMA cells (human ERBB2 exon20 insertion mutant A775_G776ins YVMA); experiment: Cell growth inhibition (CellTiter-Glo), HCC827-YVMA; assay type: cell-based; conditions: 72 h, HCC827-YVMA cells, 3 days, CellTiter-Glo, read-out: Cell growth inhibition, GI50 (nM) HCC827-YVMA
Description: as §1
HCC827-ASV and HCC827-YVMA cell lines were generated in a similar approach as HCC827-SVD, except that HCC827 cells (ATCC) were first transduced with lentiviral particles expressing codon-optimized human EGFR exon 20 insertion mutant V769_D770insASV and human ERBB2 exon20 insertion mutant A775_G776ins YVMA, respectively.
as §2, §3

| GI50 [1] [nM] | GI50 [2] [nM] | SMILES |
| --- | --- | --- |
| 200 to 1000 | < 50 | C=CC(=O)N1CCC(c2c[nH]c3ncnc(Nc4ccc(Oc5ccnc(NC(=O)C(C)(C)C)c5)cc4F)c23)CC1 [Compound 91, N-(4-(4-((5-(1-acryloylpiperidin-4-yl)-7H-pyrrolo[2,3-d]pyrimidin-4-yl)amino)-3-fluorophenoxy)pyridin-2-yl)pivalamide] |
| 50 to 200 | 50 to 200 | C=CC(=O)N1CCC(c2c[nH]c3ncnc(Nc4ccc(Oc5ccnc(-c6ccn(C)n6)c5)c(Cl)c4)c23)CC1 [Compound 48, 1-(4-(4-((3-chloro-4-((2-(1-methyl-1H-pyrazol-3-yl)pyridin-4-yl)oxy)phenyl)amino)-7H-pyrrolo[2,3-d]pyrimidin-5-yl)piperidin-1-yl)prop-2-en-1-one] |
| 50 to 200 | 200 to 1000 | C=CC(=O)N1CCC(c2c[nH]c3ncnc(Nc4ccc(Oc5ccn(-c6ccc7cc[nH]c7n6)n5)cc4F)c23)CC1 [Compound 41, 1-(4-(4-((4-((1-(1H-pyrrolo[2,3-b]pyridin-6-yl)-1H-pyrazol-3-yl)oxy)-2-fluorophenyl)amino)-7H-pyrrolo[2,3-d]pyrimidin-5-yl)piperidin-1-yl)prop-2-en-1-one] |
| < 50 | < 50 | C=CC(=O)N1CCC(c2c[nH]c3ncnc(Nc4ccc(CNc5ccccn5)cc4F)c23)CC1 [Compound 69, 1-(4-(4-((2-fluoro-4-((pyridin-2-ylamino)methyl)phenyl)amino)-7H-pyrrolo[2,3-d]pyrimidin-5-yl)piperidin-1-yl)prop-2-en-1-one] |
| 50 to 200 | 50 to 200 | C=CC(=O)N1CCC(c2c[nH]c3ncnc(Nc4ccc(OCc5cc(C6CC6)ccn5)c(Cl)c4)c23)CC1 [Compound 89, 1-(4-(4-((3-chloro-4-((4-cyclopropylpyridin-2-yl)methoxy)phenyl)amino)-7H-pyrrolo[2,3-d]pyrimidin-5-yl)piperidin-1-yl)prop-2-en-1-one] |
| < 50 | < 50 | C=CC(=O)N1CCC(c2c[nH]c3ncnc(Nc4ccc(OCc5cnccc5OC)c(Cl)c4)c23)CC1 [Compound 71, 1-(4-(4-((3-chloro-4-((4-methoxypyridin-3-yl)methoxy)phenyl)amino)-7H-pyrrolo[2,3-d]pyrimidin-5-yl)piperidin-1-yl)prop-2-en-1-one] |
| 200 to 1000 | 200 to 1000 | C=CC(=O)N1CCC(c2n[nH]c3ncnc(Nc4ccc(Oc5ccnc(NC(=O)c6cnn(C)c6)c5)cc4F)c23)CC1 [Compound 196, N-(4-(4-((3-(1-acryloylpiperidin-4-yl)-1H-pyrazolo[3,4-d]pyrimidin-4-yl)amino)-3-fluorophenoxy)pyridin-2-yl)-1-methyl-1H-pyrazole-4-carboxamide] |
| > 1000 | 50 to 200 | C=CC(=O)N1CCC(c2c[nH]c3ncnc(Nc4ccc(Oc5ccnc(Nc6ncc[nH]6)c5)cc4F)c23)CC1 [Compound 59, 1-(4-(4-((4-((2-((1H-imidazol-2-yl)amino)pyridin-4-yl)oxy)-2-fluorophenyl)amino)-7H-pyrrolo[2,3-d]pyrimidin-5-yl)piperidin-1-yl)prop-2-en-1-one] |
| 200 to 1000 | 50 to 200 | C=CC(=O)N1CCC(c2c[nH]c3ncnc(Nc4ccc(OCc5nc(CNc6ncn(C)n6)cs5)c(Cl)c4)c23)CC1 [Compound 62, 1-(4-(4-((3-chloro-4-((4-(((1-methyl-1H-1,2,4-triazol-3-yl)amino)methyl)thiazol-2-yl)methoxy)phenyl)amino)-7H-pyrrolo[2,3-d]pyrimidin-5-yl)piperidin-1-yl)prop-2-en-1-one] |
| > 1000 | 200 to 1000 | C=CC(=O)N1CCC(c2c[nH]c3ncnc(Nc4ccc(Oc5ccnc(-n6cc(F)cn6)c5)cc4F)c23)CC1 [Compound 61, 1-(4-(4-((2-fluoro-4-((2-(4-fluoro-1H-pyrazol-1-yl)pyridin-4-yl)oxy)phenyl)amino)-7H-pyrrolo[2,3-d]pyrimidin-5-yl)piperidin-1-yl)prop-2-en-1-one] |
| < 50 | < 50 | C=CC(=O)N1CCC(c2c[nH]c3ncnc(Nc4ccc(OCc5ncccc5Cl)c(Cl)c4)c23)CC1 [Compound 35, 1-(4-(4-((3-chloro-4-((3-chloropyridin-2-yl)methoxy)phenyl)amino)-7H-pyrrolo[2,3-d]pyrimidin-5-yl)piperidin-1-yl)prop-2-en-1-one] |
| 50 to 200 | 50 to 200 | C=CC(=O)N1CCC(c2c[nH]c3ncnc(Nc4ccc(Oc5ccnc(NCC(C)C)n5)cc4F)c23)CC1 [Compound 45, 1-(4-(4-((2-fluoro-4-((2-(isoButylamino)pyrimidin-4-yl)oxy)phenyl)amino)-7H-pyrrolo[2,3-d]pyrimidin-5-yl)piperidin-1-yl)prop-2-en-1-one] |
| 50 to 200 | 50 to 200 | C=CC(=O)N1CCC(c2c[nH]c3ncnc(Nc4ccc(OCc5ccnn5CC)c(Cl)c4)c23)CC1 [Compound 81, 1-(4-(4-((3-chloro-4-((1-ethyl-1H-pyrazol-5-yl)methoxy)phenyl)amino)-7H-pyrrolo[2,3-d]pyrimidin-5-yl)piperidin-1-yl)prop-2-en-1-one] |
| < 50 | < 50 | C=CC(=O)N1CCC(c2c[nH]c3ncnc(Nc4ccc(Oc5ccnc(Nc6ccccn6)c5)c(Cl)c4F)c23)CC1 [Compound 40, 1-(4-(4-((3-chloro-2-fluoro-4-((2-(pyridin-2-ylamino)pyridin-4-yl)oxy)phenyl)amino)-7H-pyrrolo[2,3-d]pyrimidin-5-yl)piperidin-1-yl)prop-2-en-1-one] |
| < 50 | < 50 | C=CC(=O)N1CCC(c2c[nH]c3ncnc(Nc4ccc(OCc5cncs5)c(Cl)c4)c23)CC1 [Compound 86, 1-(4-(4-((3-chloro-4-(thiazol-5-ylmethoxy)phenyl)amino)-7H-pyrrolo[2,3-d]pyrimidin-5-yl)piperidin-1-yl)prop-2-en-1-one] |
| 200 to 1000 | 200 to 1000 | C=CC(=O)N1CCC(c2c[nH]c3ncnc(Nc4ccc(Oc5ccnc(N6C[C@H]7CCC[C@H]7C6)c5)cc4F)c23)CC1 [Compound 63, 1-(4-(4-((2-fluoro-4-((2-((3aR,6aS)-hexahydrocyclopenta[c]pyrrol-2(1H)-yl)pyridin-4-yl)oxy)phenyl)amino)-7H-pyrrolo[2,3-d]pyrimidin-5-yl)piperidin-1-yl)prop-2-en-1-one] |
| 200 to 1000 | 200 to 1000 | C=CC(=O)N1CCC(c2c[nH]c3ncnc(Nc4ccc(OCc5nnc[nH]5)c(Cl)c4)c23)CC1 [Compound 67, 1-(4-(4-((4-((4H-1,2,4-triazol-3-yl)methoxy)-3-chlorophenyl)amino)-7H-pyrrolo[2,3-d]pyrimidin-5-yl)piperidin-1-yl)prop-2-en-1-one] |
| 200 to 1000 | 50 to 200 | C=CC(=O)N1CCC(c2c[nH]c3ncnc(Nc4ccc(Oc5ccnc(Nc6ccncn6)c5)cc4F)c23)CC1 [Compound 83, 1-(4-(4-((2-fluoro-4-((2-(pyrimidin-4-ylamino)pyridin-4-yl)oxy)phenyl)amino)-7H-pyrrolo[2,3-d]pyrimidin-5-yl)piperidin-1-yl)prop-2-en-1-one] |
| 200 to 1000 | 200 to 1000 | C=CC(=O)N1CCC(c2c[nH]c3ncnc(Nc4ccc(Oc5ccnc(N6CCC(C)(F)C6)c5)cc4F)c23)CC1 (stereo not shown) [Compound 57, 1-[4-[4-[2-fluoro-4-[[2-(3-fluoro-3-methyl-pyrrolidin-1-yl)-4-pyridyl]oxy]anilino]-7H-pyrrolo[2,3-d]pyrimidin-5-yl]-1-piperidyl]prop-2-en-1-one] |
| 200 to 1000 | 50 to 200 | C=CC(=O)N1CCC(c2c[nH]c3ncnc(Nc4ccc(Oc5ccnc(Nc6cnccn6)c5)cc4F)c23)CC1 [Compound 78, 1-(4-(4-((2-fluoro-4-((2-(pyrazin-2-ylamino)pyridin-4-yl)oxy)phenyl)amino)-7H-pyrrolo[2,3-d]pyrimidin-5-yl)piperidin-1-yl)prop-2-en-1-one] |
| 200 to 1000 | 50 to 200 | C=CC(=O)N1CCC(c2c[nH]c3ncnc(Nc4ccc(Oc5ccnc(NCC(F)(F)F)c5)cc4F)c23)CC1 [Compound 58, 1-(4-(4-((2-fluoro-4-((2-((2,2,2-trifluoroethyl)amino)pyridin-4-yl)oxy)phenyl)amino)-7H-pyrrolo[2,3-d]pyrimidin-5-yl)piperidin-1-yl)prop-2-en-1-one] |
|  | < 50 | C=CC(=O)N1CCC(c2c[nH]c3ncnc(Nc4ccc(Oc5cccc(C(F)(F)F)c5)c(Cl)c4)c23)CC1 [Compound 225, 1-[4-[4-[3-chloro-4-[3-(trifluoromethyl)phenoxy]anilino]-7H-pyrrolo[2,3-d]pyrimidin-5-yl]-1-piperidyl]prop-2-en-1-one] |
